Reference: patent US11214578B2, “Urea/carbamates FAAH MAGL or dual FAAH/MAGL inhibitors and uses thereof” (Northeastern University, priority 2014, dated 2022)

What was measured:
Assay type in all cases: biochemical
Human FAAH (MBPΔTMhFAAH) = biological target: T1, Human FAAH (MBPΔTMhFAAH) (Homo sapiens, UniProt O00519); test: Fluorescent assay protocol for hFAAH; settings: human FAAH (MBP fusion, ΔTM), procedure as for rFAAH
T1 construct: made in house; host or cells: E. coli (pMALcE4 vector)
T1 sequence (O00519 30-579 limits assumed): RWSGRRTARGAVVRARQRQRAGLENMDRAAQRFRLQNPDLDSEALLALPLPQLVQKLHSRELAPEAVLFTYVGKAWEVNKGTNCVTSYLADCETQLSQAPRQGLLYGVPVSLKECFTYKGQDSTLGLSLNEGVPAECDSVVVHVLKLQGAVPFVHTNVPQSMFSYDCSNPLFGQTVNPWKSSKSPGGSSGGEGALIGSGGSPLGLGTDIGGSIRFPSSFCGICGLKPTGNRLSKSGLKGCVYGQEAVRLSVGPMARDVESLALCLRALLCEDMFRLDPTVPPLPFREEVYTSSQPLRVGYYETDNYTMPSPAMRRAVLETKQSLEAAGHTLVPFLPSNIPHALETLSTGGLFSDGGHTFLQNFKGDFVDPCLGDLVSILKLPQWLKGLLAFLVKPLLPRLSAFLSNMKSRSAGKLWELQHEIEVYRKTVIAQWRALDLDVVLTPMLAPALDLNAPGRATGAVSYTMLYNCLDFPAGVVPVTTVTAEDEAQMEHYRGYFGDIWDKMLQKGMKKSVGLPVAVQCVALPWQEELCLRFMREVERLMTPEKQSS
Procedure: Human FAAH without putative transmembrane domain following maltose binding protein was expressed in E. coli cells using pMALcE4 vector Alapafuja et al J. Med. Chem. (2012) 55: 10074-89.
Procedure was followed as described for hMAGL, except that arachidonoyl-methyl coumarin amide (AAMCA) was used as fluorigenic substrate. Compounds were diluted in 50:50 DMSO/assay buffer (50 mM HEPES, 1 mM EDTA, 0.1% BSA, pH 7.4) so as to have a final DMSO concentration below 8% in each reaction. For the screening assay, 3 concentrations (1 μM, 10 μM, and 100 μM) of test compounds, 15 μg of ΔTM rFAAH and assay buffer were pre-incubated for 15 min at 25° C. AAMCA (20 μM, 2×Km) was added prior to incubation at 25° C. and kinetic fluorescence reading every 20 minutes (λex=360/λem=460) for 4 hours on a BioTek Synergy HT Microplate Reader (BioTek Instruments, Winooski, Vt.). The fluorescence reading at the 3 hour time point (linear enzyme kinetics) was used to calculate percent inhibition based on control assays without inhibitor present. All FAAH assays were performed in triplicate for each inhibitor concentration, and IC50 values determined using Prizm software (GraphPad Software, Inc.).
Procedure was followed as described for rFAAH.

Human MAGL (hMAGL) = biological target: T2, Human MAGL (hMAGL) (Homo sapiens, UniProt Q99685); test: Fluorescent assay protocol for hMAGL (AHMMCE substrate); settings: recombinant human MAGL, AHMMCE substrate, 15 min preincubation; read-out: IC50 hMAGL
T2 construct: hexahistidine; made in house; host or cells: E. coli
T2 sequence (Q99685 1-303): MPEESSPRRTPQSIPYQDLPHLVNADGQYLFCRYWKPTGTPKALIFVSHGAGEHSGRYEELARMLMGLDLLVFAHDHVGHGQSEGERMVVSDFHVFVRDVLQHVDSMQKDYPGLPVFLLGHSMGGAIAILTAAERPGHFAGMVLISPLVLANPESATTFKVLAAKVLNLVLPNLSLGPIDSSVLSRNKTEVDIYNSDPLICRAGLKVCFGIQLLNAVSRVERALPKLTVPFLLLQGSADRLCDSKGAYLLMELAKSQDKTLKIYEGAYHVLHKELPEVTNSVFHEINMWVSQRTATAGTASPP
Procedure: (§1) This medium throughput assay involved a 96-well plate format in which hMAGL activity was monitored by the hydrolysis of the substrate 7-hydroxy-6-methoxy-4-methylcoumarin ester (AHMMCE) to form the fluorescent product, coumarin. […] Upon the addition of AHMMCE, the reaction was incubated at 25° C. for 120 min; fluorescence readings were taken every 15 min at 360 nm/460 nm (λexcitation/λemission) using a Synergy HT Plate Reader (Bio-Tek, Winooski, Vt.). […] External standards were used to convert relative fluorescence units to the amount of 4-methylcoumarin formed. All MAGL assays were performed in triplicate for each inhibitor concentration, and IC50 values were calculated using Prizm software (GraphPad Software, Inc., San Diego, Calif.).

ΔTM rat FAAH = biological target: T3, ΔTM rat FAAH (Rattus norvegicus, UniProt P97612); test: Fluorescent assay protocol for ΔTM rat FAAH (AAMCA substrate); settings: 15 min preincubation, read-out: IC50 rFAAH
T3 construct: Preparation of Transmembrane Domain-Deleted Rat FAAH (ΔTM rFAAH); made in house; host or cells: E. coli
T3 sequence (P97612 30-579 limits assumed): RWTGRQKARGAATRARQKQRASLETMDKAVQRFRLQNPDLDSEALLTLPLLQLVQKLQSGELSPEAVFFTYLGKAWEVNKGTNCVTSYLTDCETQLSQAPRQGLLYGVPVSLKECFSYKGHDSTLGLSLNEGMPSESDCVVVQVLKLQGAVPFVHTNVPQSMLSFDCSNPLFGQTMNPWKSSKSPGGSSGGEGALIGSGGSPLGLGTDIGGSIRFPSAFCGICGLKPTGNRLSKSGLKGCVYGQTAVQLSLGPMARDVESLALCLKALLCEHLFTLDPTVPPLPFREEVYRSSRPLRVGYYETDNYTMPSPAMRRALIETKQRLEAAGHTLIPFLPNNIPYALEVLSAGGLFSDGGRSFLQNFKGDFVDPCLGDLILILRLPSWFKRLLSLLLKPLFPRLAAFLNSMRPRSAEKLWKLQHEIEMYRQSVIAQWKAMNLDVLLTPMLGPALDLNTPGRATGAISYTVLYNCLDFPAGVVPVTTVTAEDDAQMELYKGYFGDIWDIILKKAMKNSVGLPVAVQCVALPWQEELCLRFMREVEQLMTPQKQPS
Procedure: Procedure was followed as described for hMAGL, except that arachidonoyl-methyl coumarin amide (AAMCA) was used as fluorigenic substrate. […] For the screening assay, 3 concentrations (1 μM, 10 μM, and 100 μM) of test compounds, 15 μg of ΔTM rFAAH and assay buffer were pre-incubated for 15 min at 25° C. […] The fluorescence reading at the 3 hour time point (linear enzyme kinetics) was used to calculate percent inhibition based on control assays without inhibitor present. All FAAH assays were performed in triplicate for each inhibitor concentration, and IC50 values determined using Prizm software (GraphPad Software, Inc.).

Rat MAGL (rMAGL) = biological target: T4, Rat MAGL (rMAGL) (Rattus norvegicus, UniProt Q8R431); test: Fluorescent assay protocol for rMAGL; settings: recombinant rat MAGL, procedure as for hMAGL; read-out: IC50 rMAGL
T4 construct: made in house; host or cells: E. coli
T4 sequence (Q8R431 1-303): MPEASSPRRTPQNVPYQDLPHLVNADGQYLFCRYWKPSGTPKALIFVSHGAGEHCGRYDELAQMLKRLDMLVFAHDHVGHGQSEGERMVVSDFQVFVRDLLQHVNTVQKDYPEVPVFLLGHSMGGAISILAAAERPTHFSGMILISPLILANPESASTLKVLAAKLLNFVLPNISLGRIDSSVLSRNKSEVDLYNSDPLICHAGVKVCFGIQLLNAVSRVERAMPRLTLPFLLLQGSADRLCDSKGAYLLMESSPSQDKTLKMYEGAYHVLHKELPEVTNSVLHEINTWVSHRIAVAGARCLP
Procedure: as §1
Procedure was followed as described for hMAGL.

Row | IC50 (Rat MAGL (rMAGL)) [nM] | Structure (SMILES) | IC50 (Human FAAH (MBPΔTMhFAAH)) [nM] | IC50 (Human MAGL (hMAGL)) [nM] | IC50 (ΔTM rat FAAH) [nM]
1 | > 1000 | NC(=O)c1cccc(-c2cccc(NC(=O)N3CCN(Cc4ccc5ccccc5n4)CC3)c2)c1 [Example 12, N-(3′-carbamoyl-[1,1′-biphenyl]-3-yl)-4-(quinolin-2-ylmethyl)piperazine-1-carboxamide] | 10 to 100 | > 1000 | 10 to 100
2 | – | CC(C)C(c1ccccc1)N1CCN(C(=O)Oc2cccc(C#N)c2)CC1 (stereo not drawn) [Example 35, 3-Cyanophenyl 4-(2-methyl-1-phenylpropyl)piperazine-1-carboxylate] | > 1000 | > 1000 | > 1000
3 | – | N#Cc1cccc(OC(=O)N2CCN(C(c3ccccc3)C3CCCC3)CC2)c1 (stereo not drawn) [Example 37, 3-cyanophenyl 4-(cyclopentyl(phenyl)methyl)piperazine-1-carboxylate] | 10 to 100 | – | 10 to 100
4 | – | N#Cc1cccc(OC(=O)N2CCN(C(c3ccc(F)cc3)c3ccc(F)cc3)CC2)c1 [Example 40, 3-cyanophenyl 4-(bis(4-fluorophenyl)methyl)piperazine-1-carboxylate] | > 1000 | – | > 1000
5 | – | N#Cc1cccc(OC(=O)N2CCN(C3c4ccccc4-c4ccccc43)CC2)c1 [Example 41, 3-cyanophenyl 4-(9H-fluoren-9-yl)piperazine-1-carboxylate] | 110 to 1000 | – | 110 to 1000
6 | – | N#Cc1cccc(OC(=O)N2CCN(C(c3ccccc3)c3ccccc3)CC2)c1 [Example 44, 3-Cyanophenyl 4-benzhydrylpiperazine-1-carboxylate] | 10 to 100 | – | 10 to 100
7 | – | N#Cc1ccc(F)c(OC(=O)N2CCC(C(c3ccccc3)c3ccccc3)CC2)c1 [Example 49, 5-cyano-2-fluorophenyl 4-benzhydrylpiperidine-1-carboxylate] | > 1000 | – | > 1000
8 | – | N#Cc1cc(O)cc(OC(=O)N2CCC(C(c3ccccc3)c3ccccc3)CC2)c1 [Example 50, 3-cyano-5-hydroxyphenyl 4-benzhydrylpiperidine-1-carboxylate] | > 1000 | – | > 1000
9 | – | N#Cc1cccc(OC(=O)N2CCC(OC(c3ccccc3)c3ccccc3)CC2)c1 [Example 58, 3-cyanophenyl 4-(benzhydryloxy)piperidine-1-carboxylate] | > 1000 | – | > 1000
